Results taken from patent publication US20220283165A1, “Methods of Enhancing Immunogenicity of Cancers” (The Board of Trustees of the Leland Stanford Junior …, priority 2019, published 2022).

Experiments:
[1] = target: Myc-AURKA complex (Homo sapiens, UniProt O14965); settings: MYCN-amplified neuroblastomas; cited from earlier work
[2] = system: c-Myc; settings: P53-mutant human hepatocellular carcinoma cells; cited from earlier work
[3] = system: hematopoietic cancers and pancreatic ductal adenocarcinoma (PDAC) exhibiting C-MYC overexpression; settings: in vitro and in vivo; cited from earlier work
[4] = target: T1, Myc-Max complex (Homo sapiens, UniProt P01106); settings: HL60 cells; cited from earlier work
T1 construct: host or cells: HL60 cells (for 10058-F4 only)

[5] = system: Siglec-7 ligands on primary human T-ALL cells; assay: Siglec-7 ligands on patient T-ALL liquid biopsies treated with MYC inhibitor; type: cell-based; settings: FACS-sorted primary T-ALL cells, 48 hours; two of three patients had Siglec-7-Fc binding
Procedure: (§1) ST6GALNAC4 or pharmacologic MYC inhibition for 48 hours by incubation with 100 μM 10058-F4 (n(control)=8, n(KO)=4, n(inhibitor)=6, two-tailed Mann-Whitney U test). Data presented as mean ±s.d. Panel C: Representative Western blot for ST6GALNAC4 in PEER cells following MYC inhibition with 100 μM 10058-F4 for 48 hours. Data representative of two independent experiments. Panel D: Workflow to collect primary T-ALL from patients, treat with a MYC inhibitor (10058-F4), and quantify Siglec-7 ligands. Panel E: Siglec-7 ligands on patient T-ALL liquid biopsies treated with the indicated concentration of 10058-F4 for 48 hours. Data represent three donors. Panel F: Correlation of ST6GALNAC4 and MYC mRNA (RNA-seq) gene expression across all hematopoietic tumor samples (n=106) in the CCLE with MYC expression>3. Correlation determined by least squares regression. Panel G: Survival Z-score heatmap for each sialyltransferase across each hematopoietic tumor within the PRECOG database. […] Panel H: Siglec-7 ligand display by KARPAS-422 DLBCL cells following treatment with 10058-F4 for 48 hours (n=3 per group, two-tailed Student's t-test). Data presented as mean±s.d. […] Monocyte prevalence was calculated as a fraction of all lymphocytes. […]
Assessed next was whether T-ALL liquid biopsies display Siglec-7 ligands susceptible to MYC regulation. […]

[6] = system: Siglec-7 ligands on KARPAS-422 DLBCL cells; assay: Siglec-7 ligand display by KARPAS-422 DLBCL cells after MYC inhibition; type: cell-based, human; settings: 48 hours
Procedure: as §1, with “mean±s.d. Panel I: Survival stratified by median MYC and ST6GALNAC4 expression in a cohort of DLBCL patients (GSE4475). HR, hazard ratio from Cox Proportional Hazards model.” for “mean±s.d.”

[7] = system: ST6GALNAC4; assay: Western blot for ST6GALNAC4 in PEER cells after MYC inhibition; type: cell-based, human; settings: 100 μM 10058-F4 for 48 hours
Procedure: as §1, with “mean±s.d. Panel I: Survival stratified by median MYC and ST6GALNAC4 expression in a cohort of DLBCL patients (GSE4475). HR, hazard ratio from Cox Proportional Hazards model.” for “mean±s.d.”

[8] = system: Siglec-7 ligands on PEER cells; assay: Siglec-7 ligand display (Siglec-7-Fc staining, flow cytometry) on PEER cells after MYC or CDK7/9 inhibition; type: cell-based, human; settings: 48 hours, 10058-F4 at 100 μM
Procedure: as §1, with “mean±s.d. Panel I: Survival stratified by median MYC and ST6GALNAC4 expression in a cohort of DLBCL patients (GSE4475). HR, hazard ratio from Cox Proportional Hazards model.” for “mean±s.d.”

[9] = system: MYC-overexpressing T-cell acute lymphoblastic leukemia, mixed-lineage leukemia, neuroblastomas, small cell lung cancers; settings: cited from earlier work
[10] = system: MYCN-amplified neuroblastoma; settings: xenograft model; cited from earlier work

Chain of Myc-AURKA complex (O14965 whole entry, one chain of several): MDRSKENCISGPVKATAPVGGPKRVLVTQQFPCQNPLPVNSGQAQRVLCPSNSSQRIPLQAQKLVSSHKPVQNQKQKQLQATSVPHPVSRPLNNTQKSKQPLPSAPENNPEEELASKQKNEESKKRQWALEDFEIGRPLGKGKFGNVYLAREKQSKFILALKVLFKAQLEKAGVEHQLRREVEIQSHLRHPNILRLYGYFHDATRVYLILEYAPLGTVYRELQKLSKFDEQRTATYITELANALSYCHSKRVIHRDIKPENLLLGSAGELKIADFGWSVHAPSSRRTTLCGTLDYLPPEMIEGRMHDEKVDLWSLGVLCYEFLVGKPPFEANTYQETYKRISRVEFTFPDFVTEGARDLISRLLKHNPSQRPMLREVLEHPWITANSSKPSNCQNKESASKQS
T1 sequence (P01106 whole entry, one chain of several): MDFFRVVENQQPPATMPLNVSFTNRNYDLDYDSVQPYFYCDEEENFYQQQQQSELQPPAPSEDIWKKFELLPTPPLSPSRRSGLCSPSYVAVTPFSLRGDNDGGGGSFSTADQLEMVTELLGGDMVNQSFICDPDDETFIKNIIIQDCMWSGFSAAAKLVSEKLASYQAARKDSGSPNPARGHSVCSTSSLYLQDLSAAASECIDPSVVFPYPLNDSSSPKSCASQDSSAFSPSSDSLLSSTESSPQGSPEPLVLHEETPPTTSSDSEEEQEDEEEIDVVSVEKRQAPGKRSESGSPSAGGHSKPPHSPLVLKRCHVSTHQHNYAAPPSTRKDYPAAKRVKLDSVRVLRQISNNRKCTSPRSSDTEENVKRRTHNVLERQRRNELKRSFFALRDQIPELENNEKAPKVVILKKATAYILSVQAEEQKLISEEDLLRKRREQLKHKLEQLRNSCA

COc1cc(Nc2ncc3c(n2)-c2ccc(Cl)cc2C(c2c(F)cccc2OC)=NC3)ccc1C(=O)O [MLN8237]
N-Myc degradation and tumor regression [1]: N-Myc degradation and tumor regression | c-Myc degradation [2]: induced c-Myc degradation

Cc1sc2c(c1C)C(c1ccc(Cl)cc1)=N[C@@H](CC(=O)OC(C)(C)C)c1nnc(C)n1-2 [JQ1]
anti-cancer effects [3]: potent anti-cancer effects both in vitro and in vivo

CCc1ccc(/C=C2/SC(=S)NC2=O)cc1 [10058-F4]
disruption of the Myc-Max complex [4]: capable of disrupting the Myc-Max complex | Siglec-7 ligand display [5]: reduced Siglec-7 ligand display | reduction in Siglec-7 ligand abundance [6]: 70% | ST6GALNAC4 protein expression [7]: diminished ST6GALNAC4 protein expression | Siglec-7-Fc binding (Siglec-7 ligands) [8]: reduced Siglec-7-Fc binding

CN(C)C/C=C/C(=O)Nc1ccc(C(=O)Nc2cccc(Nc3ncc(Cl)c(-c4c[nH]c5ccccc45)n3)c2)cc1 [THZ1]
anti-tumor effects [9]: potent anti-tumor effects | ST6GALNAC4 protein expression [7]: diminished ST6GALNAC4 protein expression | Siglec-7-Fc binding (Siglec-7 ligands) [8]: reduced Siglec-7-Fc binding

O=C(O)c1ccc(Nc2ncc3c(n2)-c2ccc(Cl)cc2C(c2c(F)cccc2F)=NC3)cc1 [MLN8054]
N-Myc degradation and tumor regression [1]: N-Myc degradation and tumor regression

CC(=O)c1cc([N+](=O)[O-])c(Sc2ccc(F)cc2F)s1 [P22077]
growth of MYCN-amplified neuroblastoma [10]: markedly suppressed growth
